Where two headings read alike, the source gives them in different places.
Legend:
[1] = system: cornea of the right eye of a Wistar rat
Procedure: Rat models of corneal angiogenesis were produced as follows. Aqueous benzene compositions having the desired concentration (between 3.0 M and 7.0 M) were prepared by mixing benzene and water. The aqueous composition was then sterilized by heating to 100° C. for 15 minutes. In particular, 3.0 M, 4.0 M, 5.0 M, 6.0 M, or 7.0 M aqueous benzene compositions were prepared. Then, 10 μL of each composition was topically applied to the center of the cornea of the right eye of a Wistar rat that was two to three months old. The benzene aqueous composition was allowed to absorb into the eye, and was applied only once. Because the eye has its own natural protective mechanisms, it was not necessary to wash the eye at the end of the application.

[2] = system: cornea of one eye of a Wistar rat
Procedure: A rat model of corneal keratoconus was produced as follows. An aqueous benzene composition having a concentration of 7.0 M to 8.5 M was prepared by mixing water and benzene. The composition was then sterilized by heating the solution to 100° C. for 15 minutes. The aqueous benzene composition (10 μL) was topically applied directly to the center of the cornea of one eye of a Wistar rat by micropipetting. The rat was three months old, and benzene was applied only once.

[3] = system: cornea of the right eye of a Wistar rat; conditions: for Observation in Treated Eye (Number of Rats) Angiogenesis / Observation in Treated Eye (Number of Rats) Corneal Keratoconus / Observation in Treated Eye (Number of Rats) No Change: 10 μL applied once, 5 rats treated
Procedure: Rat models of corneal angiogenesis and corneal keratoconus were produced as follows. Aqueous solutions of phenol having a concentration of 0.1 M, 0.5 M, 1.0 M, 3.0 M, 5.6 M, or 8.5 M were prepared by mixing phenol and water. The solutions were then sterilized by heating to 100° C. for 15 minutes. Then, 10 μL of the sterile phenol solution was topically applied to the center of the cornea of the right eye of a Wistar rat that was two months old. Five rats were treated for each concentration of phenol tested. The phenol solution was allowed to absorb into the eye, and was applied only once. Because the eye has its own natural protective mechanisms, it was not necessary to wash the eye at the end of the application.
Histological studies were performed after eight weeks following the application of phenol. The cornea was excised, and a piece of the corneal epithelium was stained with hematoxylin and eosin stain.

cornea = conditions: compared to the amount observed when benzene is used
[4] = 7.0 M to 8.5 M aqueous benzene composition, 10 μL

c1ccccc1 [benzene]
new blood vessel formation in the cornea ([1]; all concentrations of benzene (3.0 M to 7.0 M, 10 μL), as early as 15 days after application): new blood vessels began to form in the cornea
persistence of observed growth of new blood vessels from the initial application ([1]; single application of benzene): at least four
amount of new blood vessels observed in the cornea, compared with 15 days ([1]; three weeks after application): even greater
amount of new blood vessels observed when higher concentrations were applied ([1]; within 15 days of application, 3.0 M to 7.0 M): increased
time at which changes in the cornea began to occur following application [2, 4]: within the first week
time of protrusion of the cornea following application [2, 4]: within the second week
corneal tissue changes in addition to angiogenesis ([2]; 7.0 M to 8.5 M aqueous benzene composition, 10 μL, applied once (FIG. 3)): marked thinning, and outward protrusion
severity of corneal keratoconus / endophthalmitis (intraocular infection) ([2]; 10 μL of a 9.0 M aqueous benzene composition): so severe that the rats developed endophthalmitis

Oc1ccccc1 [phenol]
other anatomical or inflammatory alterations besides new corneal vessels ([3]; 3 M phenol solution, 10 μL, three weeks (FIG. 1B)): no other anatomical or inflammatory alterations were observed
Observation in Treated Eye (Number of Rats) Angiogenesis ([3]; Phenol Concentration 0.1M): 1 Number of Rats
Observation in Treated Eye (Number of Rats) Corneal Keratoconus ([3]; Phenol Concentration 0.1M): 0 Number of Rats
Observation in Treated Eye (Number of Rats) No Change ([3]; Phenol Concentration 0.1M): 4 Number of Rats
Observation in Treated Eye (Number of Rats) Angiogenesis ([3]; Phenol Concentration 0.5M): 1 Number of Rats
Observation in Treated Eye (Number of Rats) Corneal Keratoconus ([3]; Phenol Concentration 0.5M): 0 Number of Rats
Observation in Treated Eye (Number of Rats) No Change ([3]; Phenol Concentration 0.5M): 4 Number of Rats
Observation in Treated Eye (Number of Rats) Angiogenesis ([3]; Phenol Concentration 1.0M): 3 Number of Rats
Observation in Treated Eye (Number of Rats) Corneal Keratoconus ([3]; Phenol Concentration 1.0M): 0 Number of Rats
Observation in Treated Eye (Number of Rats) No Change ([3]; Phenol Concentration 1.0M): 7 Number of Rats
Observation in Treated Eye (Number of Rats) Angiogenesis ([3]; Phenol Concentration 3.0M): 4 Number of Rats
Observation in Treated Eye (Number of Rats) Corneal Keratoconus ([3]; Phenol Concentration 3.0M): 2 Number of Rats
Observation in Treated Eye (Number of Rats) No Change ([3]; Phenol Concentration 3.0M): 1 Number of Rats
Observation in Treated Eye (Number of Rats) Angiogenesis ([3]; Phenol Concentration 6.5M): 4 Number of Rats
Observation in Treated Eye (Number of Rats) Corneal Keratoconus ([3]; Phenol Concentration 6.5M): 2 Number of Rats
Observation in Treated Eye (Number of Rats) No Change ([3]; Phenol Concentration 6.5M): 1 Number of Rats
Observation in Treated Eye (Number of Rats) Angiogenesis ([3]; Phenol Concentration 8.5M): 3 Number of Rats
Observation in Treated Eye (Number of Rats) Corneal Keratoconus ([3]; Phenol Concentration 8.5M): 1 Number of Rats
Observation in Treated Eye (Number of Rats) No Change ([3]; Phenol Concentration 8.5M): 2 Number of Rats
period over which blood vessel growth was observed ([3]; after single application of aqueous phenol solution): four
new blood vessel formation in the cornea ([3]; all concentrations tested (0.1 M to 8.5 M), at least one of the rats in each group, one week after application): new blood vessels began to form in the cornea
histology of corneal epithelium, hematoxylin and eosin stain ([3]; eight weeks after single application of 3.0 M phenol solution (10 μl), FIG. 1C): well differentiated blood vessels can be seen under the basal membrane of the corneal epithelium
changes associated with corneal ectasia, particularly corneal keratoconus ([3]; higher concentrations of phenol tested (3.0 M, 5.6 M, and 8.5 M)): observed in some of the rats
amount of new blood vessels observed in the cornea, compared with one week ([3]; three weeks after application (FIG. 1B, 3 M solution)): even greater
fibrosis and scar tissue formation, phenol compared with benzene (cornea): less fibrosis and scar tissue formation

Source: US11895992B2, “Animal models of corneal ectatic diseases, methods of producing, and methods of use thereof” (priority 2014, dated 2024)
